According to patent US8426406B2, “Glucocorticoid receptor agonist comprising 2,2,4-trimethyl-6-phenyl-1,2-dihydroquinoline derivatives having substituted oxy group” (Santen Pharmaceutical Co., Ltd., priority 2008, dated 2013):

System: IL-6 production induced by lipopolysaccharide (LPS) in human corneal epithelial cells
Assay: Evaluation test for GR agonist activity: inhibition of LPS-induced IL-6 production in human corneal epithelial cells (HCE-T)
Type: cell-based
Settings: Corneal epithelial cell, 10 μL of 100 μM test compound solution per well, 4 hours incubation, efficacy relative to DEX
Description: In order to evaluate a GR agonist activity of the present compound, the inhibitory effects on the IL-6 production induced by lipopolysaccharide (LPS) in human corneal epithelial cells. IL-6 levels in the conditioned medium were measured using the HTRF human IL-6 Kit (boehringer-Ingelheim, Cat No. 62IL6PEB), and the procedure was carried out according to the protocol attached to the kit. Hereinafter, the specific method will be described.
LPS solution: After LPS was dissolved in phosphate buffer solution (hereinafter referred to as PBS(−)), the resulting solution was diluted with 10% FBS-DMEM/F12 medium, whereby a 1 μg/mL LPS solution was prepared.
After a test compound was dissolved in dimethylsulfoxide (hereinafter referred to as DMSO), the resulting solution was diluted with 10% FBS-DMEM/F12 medium, whereby a 100 μM test compound solution was prepared. A 100 μM DEX solution was prepared by the same method, and the inhibitory ratio of IL-6 production of DEX was evaluated to use for calculating efficacy (% DEX).
Used cell: SV40-immortalized human corneal epithelial cells (HCE-T) (RIKEN)
1) HCE-T cells were harvested, and seeded at 2.0×10^4 cells/0.1 mL/well in a 96-well plate.
2) After incubation overnight, the medium was removed and a 80 μL of new 10% FBS-DMEM/Ham's F12 medium was added into each well.
3) A 10 μL of test compounds solution was added into each well.
4) A 10 μL of LPS solution was added into each well.
5) As a negative control, a 10 μL of 10% FBS-DMEM/Ham's F12 medium was added into each well instead of a test compound solution and a LPS solution.
6) As a positive control, a 10 μL of 10% FBS-DMEM/Ham's F12 medium containing 1% DMSO was added into each well instead of a test compound solution.
7) After 4 hours incubation, supernatants were collected and IL-6 levels in the supernatants were quantitated using the HTRF human IL-6 Kit.
8) The inhibition ratio of IL-6 production (%) was calculated according to the following equation.
The inhibition ratio of IL-6 production (%) was calculated according to the following equation. The inhibition ratio of IL-6 production(%)=100×[1−(IL-6 level in each group−mean value of IL-6 level in negative control)/(mean value of IL-6 level in positive control−mean value of IL-6 level in negative control)](%)
Furthermore, the inhibition ratio of IL-6 production (efficacy (% DEX)) was also calculated according to the following equation. Efficacy(% DEX)=100×{(mean value of IL-6 inhibition in compound-treated group)/(mean value of IL-6 inhibition in DEX-treated group)}(%) (Result and Discussion)

SMILES | Emax [%]
COc1cc(OC(=O)c2ccccc2F)ccc1-c1ccc2c(c1COC(=O)c1ccc(C)s1)C(C)=CC(C)(C)N2 [Compound 1-144, 6-[4-(2-Fluorobenzoyloxy)-2-methoxyphenyl]-5-(5-methylthiophen-2-ylcarbonyloxymethyl)-2,2,4-trimethyl-1,2-dihydroquinoline] | 94
COc1cc(OC(=O)c2ccsc2)ccc1-c1ccc2c(c1COC(=O)c1ccc(C)s1)C(C)=CC(C)(C)N2 [Compound 1-147, 6-[2-Methoxy-4-(thiophen-3-ylcarbonyloxy)phenyl]-5-(5-methylthiophen-2-ylcarbonyloxymethyl)-2,2,4-trimethyl-1,2-dihydroquinoline] | 80
COc1cc(OC(=O)c2ccoc2)ccc1-c1ccc2c(c1COC(=O)c1ccc(C)s1)C(C)=CC(C)(C)N2 [Compound 1-148, 6-[4-(Furan-3-ylcarbonyloxy)-2-methoxyphenyl]-5-(5-methylthiophen-2-ylcarbonyloxymethyl)-2,2,4-trimethyl-1,2-dihydroquinoline] | 86
COc1cc(OC(=O)c2ccccc2SC)ccc1-c1ccc2c(c1COC(=O)c1ccc(C)s1)C(C)=CC(C)(C)N2 [Compound 1-151] | 90
COc1cc(OC(=O)c2cccnc2C)ccc1-c1ccc2c(c1COC(=O)c1ccc(C)s1)C(C)=CC(C)(C)N2 [Compound 1-153, 6-[2-Methoxy-4-(2-methylpyridin-3-ylcarbonyloxy)phenyl]-5-(5-methylthiophen-2-ylcarbonyloxymethyl)-2,2,4-trimethyl-1,2-dihydroquinoline] | 89
COc1cc(OC(=O)c2cscn2)ccc1-c1ccc2c(c1COC(=O)c1ccc(C)s1)C(C)=CC(C)(C)N2 [Compound 1-155, 6-[2-Methoxy-4-(thiazol-4-ylcarbonyloxy)phenyl]-5-(5-methylthiophen-2-ylcarbonyloxymethyl)-2,2,4-trimethyl-1,2-dihydroquinoline] | 83
COc1cc(OC(=O)c2ccncc2)ccc1-c1ccc2c(c1COC(=O)c1ccc(C)s1)C(C)=CC(C)(C)N2 [Compound 1-156, 6-[2-Methoxy-4-(pyridin-4-ylcarbonyloxy)phenyl]-5-(5-methylthiophen-2-ylcarbonyloxymethyl)-2,2,4-trimethyl-1,2-dihydroquinoline] | 90
COc1ccc(C(=O)OCc2c(-c3ccc(OC(=O)c4cccnc4)cc3OC)ccc3c2C(C)=CC(C)(C)N3)cc1 [Compound 1-157, 5-(4-Methoxybenzoyloxymethyl)-6-[2-methoxy-4-(pyridin-3-ylcarbonyloxy)phenyl]-2,2,4-trimethyl-1,2-dihydroquinoline] | 76
COc1cc(OC(=O)c2cccnc2)ccc1-c1ccc2c(c1COC(=O)c1ccc(Br)s1)C(C)=CC(C)(C)N2 [Compound 1-160, 5-(5-Bromothiophen-2-ylcarbonyloxymethyl)-6-[2-methoxy-4-(pyridin-3-ylcarbonyloxy)phenyl]-2,2,4-trimethyl-1,2-dihydroquinoline] | 88
COc1cc(OC(=O)c2ccco2)ccc1-c1ccc2c(c1COC(=O)c1ccc(Br)s1)C(C)=CC(C)(C)N2 [Compound 1-162, 5-(5-Bromothiophen-2-ylcarbonyloxymethyl)-6-[4-(furan-2-ylcarbonyloxy)-2-methoxyphenyl]-2,2,4-trimethyl-1,2-dihydroquinoline] | 81
COc1cc(OC(=O)C(C)C)ccc1-c1ccc2c(c1COC(=O)c1ccc(C)s1)C(C)=CC(C)(C)N2 [Compound 1-164, 6-(4-Isopropylcarbonyloxy-2-methoxyphenyl)-5-(5-methylthiophen-2-ylcarbonyloxymethyl)-2,2,4-trimethyl-1,2-dihydroquinoline] | 85
COc1cc(OC(=O)c2ccccc2OC(C)=O)ccc1-c1ccc2c(c1COC(=O)c1ccc(C)s1)C(C)=CC(C)(C)N2 [Compound 1-165, 6-[4-(2-Acetoxybenzoyloxy)-2-methoxyphenyl]-5-(5-methylthiophen-2-ylcarbonyloxymethyl)-2,2,4-trimethyl-1,2-dihydroquinoline] | 93
COc1cc(OC(=O)c2cccnc2OC)ccc1-c1ccc2c(c1COC(=O)c1ccc(C)s1)C(C)=CC(C)(C)N2 [Compound 1-166, 6-[2-Methoxy-4-(2-methoxypyridin-3-ylcarbonyloxy)phenyl]-5-(5-methylthiophen-2-ylcarbonyloxymethyl)-2,2,4-trimethyl-1,2-dihydroquinoline] | 91
COc1cc(OC(=O)c2ccc(F)cc2)ccc1-c1ccc2c(c1COC(=O)c1ccc(C)s1)C(C)=CC(C)(C)N2 [Compound 1-169, 6-[4-(4-Fluorobenzoyloxy)-2-methoxyphenyl]-5-(5-methylthiophen-2-ylcarbonyloxymethyl)-2,2,4-trimethyl-1,2-dihydroquinoline] | 78
COc1cc(OC(=O)c2ccccc2[N+](=O)[O-])ccc1-c1ccc2c(c1COC(=O)c1ccc(C)s1)C(C)=CC(C)(C)N2 [Compound 1-170, 6-[2-Methoxy-4-(2-nitrobenzoyloxy)phenyl]-5-(5-methylthiophen-2-ylcarbonyloxymethyl)-2,2,4-trimethyl-1,2-dihydroquinoline] | 77
COc1cc(OC(=O)c2occc2C)ccc1-c1ccc2c(c1COC(=O)c1ccc(C)s1)C(C)=CC(C)(C)N2 [Compound 1-171, 6-[2-Methoxy-4-(3-methylfuran-2-ylcarbonyloxy)phenyl]-5-(5-methylthiophen-2-ylcarbonyloxymethyl)-2,2,4-trimethyl-1,2-dihydroquinoline] | 87
CCCS(=O)(=O)Oc1ccc(-c2ccc3c(c2COc2cc(F)ccc2C)C(C)=CC(C)(C)N3)c(OC)c1 [Compound 4-3, 5-(5-Fluoro-2-methylphenoxymethyl)-6-(2-methoxy-4-propylsulfonyloxyphenyl)-2,2,4-trimethyl-1,2-dihydroquinoline] | 81
CCS(=O)(=O)Oc1ccc(-c2ccc3c(c2COc2cc(F)ccc2C)C(C)=CC(C)(C)N3)c(OC)c1 [Compound 4-4, 6-(4-Ethylsulfonyloxy-2-methoxyphenyl)-5-(5-fluoro-2-methylphenoxymethyl)-2,2,4-trimethyl-1,2-dihydroquinoline] | 89
CCCCS(=O)(=O)Oc1ccc(-c2ccc3c(c2COc2cc(F)ccc2C)C(C)=CC(C)(C)N3)c(OC)c1 [Compound 4-6, 6-(4-Butylsulfonyloxy-2-methoxyphenyl)-5-(5-fluoro-2-methylphenoxymethyl)-2,2,4-trimethyl-1,2-dihydroquinoline] | 82
CCS(=O)(=O)Oc1ccc(-c2ccc3c(c2COc2cc([N+](=O)[O-])ccc2C)C(C)=CC(C)(C)N3)c(OC)c1 [Compound 4-11, 6-(4-Ethylsulfonyloxy-2-methoxyphenyl)-5-(2-methyl-5-nitrophenoxymethyl)-2,2,4-trimethyl-1,2-dihydroquinoline] | 75
CCCS(=O)(=O)Oc1ccc(-c2ccc3c(c2COc2cc([N+](=O)[O-])ccc2C)C(C)=CC(C)(C)N3)c(OC)c1 [Compound 4-12, 6-(2-Methoxy-4-propylsulfonyloxyphenyl)-5-(2-methyl-5-nitrophenoxymethyl)-2,2,4-trimethyl-1,2-dihydroquinoline] | 77
COc1cc(OS(=O)(=O)C2CC2)ccc1-c1ccc2c(c1COc1cc(F)ccc1C)C(C)=CC(C)(C)N2 [Compound 4-14, 6-(4-Cyclopropylsulfonyloxy-2-methoxyphenyl)-5-(5-fluoro-2-methylphenoxymethyl)-2,2,4-trimethyl-1,2-dihydroquinoline] | 80
COc1ccccc1NCc1c(-c2ccc(OS(C)(=O)=O)cc2OC)ccc2c1C(C)=CC(C)(C)N2 [Compound 4-20, 6-(2-Methoxy-4-methylsulfonyloxyphenyl)-5-(2-methoxyphenylaminomethyl)-2,2,4-trimethyl-1,2-dihydroquinoline] | 75
CCCS(=O)(=O)Oc1ccc(-c2ccc3c(c2CNc2cc(F)ccc2C)C(C)=CC(C)(C)N3)c(OC)c1 [Compound 4-21, 5-(5-Fluoro-2-methylphenylaminomethyl)-6-(2-methoxy-4-propylsulfonyloxyphenyl)-2,2,4-trimethyl-1,2-dihydroquinoline] | 82
COc1cc(OS(=O)(=O)CCC(F)(F)F)ccc1-c1ccc2c(c1COC(=O)c1ccc(C)s1)C(C)=CC(C)(C)N2 [Compound 4-26, 6-[2-Methoxy-4-(3,3,3-trifluoropropylsulfonyl-oxy)phenyl]-5-(5-methylthiophen-2-yl-carbonyloxymethyl)-2,2,4-trimethyl-1,2-dihydroquinoline] | 77
